Where “and” joins values, the source holds several entries; their conditions need not be identical. Identical values can stand only once. Counter-ions that a name gives are not always drawn. Like-named read-outs stand apart in the source and are kept apart here. Marks after values point to notes of the source that are not given here.
Tested on: Human Breast Adenocarcinoma Cell Line MDA-MB-231
Experiment: Drug cytotoxicity testing (viable cell count, trypan blue exclusion, cell growth inhibition)
Assay type: cell-based
Conditions: for IC50: calculated from three concentrations, read-out: IC50 mol/L (a); for cell growth inhibition reached on increase of the concentration, in (B): sodium salt, range 10^-9 to 10^-7 M, dilution in normal saline (B)
Description: MDA-MB-231 cells were propagated in MEM culture medium with 2 mM L-glutamine, 10% heat-inactivated fetal bovine serum (FBS) and antibiotics. DU 145 cells were cultured in MEM culture medium containing 2 mM L-glutamine, 1 mM sodium pyruvate, 10% FBS and antibiotics. SKOV-3 cells were cultured in McCoy's 5A culture medium, supplemented with 1,5 mM L-glutamine, 10% FBS and antibiotics. A549 cells were cultured in Ham's F-12 culture medium with 1 mM L-glutamine, 10% FBS and antibiotics. All media and supplements were purchased from Sigma-Aldrich (St.Louis, MO, USA). Cell propagation of all lines was carried out in Falcon™ 25 cm^2 cultivation flasks (Becton Dickinson Labware).
Drug cytotoxicity testing was carried out with using Falcon™ 96-well cultivation plates for adherent cells (Becton Dickinson Labware). These plates were seeded by cells either at 12 × 10^3 MDA-MB-231 cells/well, or at 12 × 10^3 DU 145 cells/well, or at 14 × 10^3 SKOV-3 cells/well, or at 10 × 10^3 A549 cells/well in a volume of 200 µL/well.
The cell cultures in cultivation plates were allowed to adhere for 24 hour of incubation. On day 1 after cell seeding, 2 µL solutions of the drugs to be tested in medium with 5% FBS was added to the cultures. In the control cultures, 2 µL of medium with 5% FBS was added as solvent control. The cells were incubated for 2 consecutive days. At the end of the incubation period adherent cells were detached by trypsinization and the number of viable cells was counted using trypan blue exclusion test and a hemocytometer. All data were derived from an average of three determinations each in six replicates. The results were expressed as mean cell number ± SE and the differences between control and test series evaluated by means of Student's t-test. The drug cytotoxicity was evaluated based on the extent of cell growth inhibition. The cell growth inhibition of the tested drugs was calculated as follows: Cell growth inhibition,% = (Control-TestSeries)/(Control) × 100 [formula]
In the case of comparative evaluation of cytotoxicity of the inventive compounds themselves and the formulation related to consecutive dilutions of their initial solutions before adding to the cultures, 2 µL solutions of the drugs to be tested in medium with 5% FBS, in normal saline and in saline with 2,3 mM CaCl2 were added to the cultures. In control cultures, 2 µL of medium with 5% FBS, normal saline and saline with 2,3 mM CaCl2 were added as solvent controls (negative controls). […] Therefore an average of negative controls was calculated. […] Therefore an average of positive controls was calculated (for each antibiotic).

[1] = cytotoxic drug alone 10^-7 mol/L, average of positive controls in medium with 5% FBS, normal saline and saline with 2,3 mM CaCl2, hydrochloride
[2] = cytotoxic drug alone 10^-8 mol/L, average of positive controls in medium with 5% FBS, normal saline and saline with 2,3 mM CaCl2, hydrochloride
[3] = cytotoxic drug alone 10^-9 mol/L, average of positive controls in medium with 5% FBS, normal saline and saline with 2,3 mM CaCl2, hydrochloride
[4] = Homo sapiens, MDA-MB-231, 48 h, compound alone, final concentration 10^-7 mol/L, working solutions in MEM with 5% FBS, two days, read-out: cell growth inhibition
[5] = Homo sapiens, MDA-MB-231, 48 h, compound alone, final concentration 10^-8 mol/L, working solutions in MEM with 5% FBS, two days, read-out: cell growth inhibition
[6] = Homo sapiens, MDA-MB-231, 48 h, compound alone, final concentration 10^-9 mol/L, working solutions in MEM with 5% FBS, two days, read-out: cell growth inhibition
[7] = compound alone, final concentration 10^-7 mol/L, working solutions in MEM with 5% FBS, two days
[8] = compound alone, final concentration 10^-8 mol/L, working solutions in MEM with 5% FBS, two days
[9] = compound alone, final concentration 10^-9 mol/L, working solutions in MEM with 5% FBS, two days
[10] = Homo sapiens, MDA-MB-231, compound alone 10^-7 mol/L, in B (normal saline), read-out: cell growth inhibition
[11] = Homo sapiens, MDA-MB-231, compound alone 10^-7 mol/L, read-out: Cell growth inhibition in A compared to that in B was increased by
[12] = Homo sapiens, MDA-MB-231, compound alone 10^-8 mol/L, in A (saline with […] CaCl2), read-out: cell growth inhibition
[13] = Homo sapiens, MDA-MB-231, compound alone 10^-8 mol/L, in B (normal saline), read-out: cell growth inhibition
[14] = Homo sapiens, MDA-MB-231, compound alone 10^-8 mol/L, read-out: Cell growth inhibition in A compared to that in B was increased by
[15] = Homo sapiens, MDA-MB-231, compound alone 10^-9 mol/L, in A (saline with […] CaCl2), read-out: cell growth inhibition
[16] = Homo sapiens, MDA-MB-231, compound alone 10^-9 mol/L, in B (normal saline), read-out: cell growth inhibition
[17] = Homo sapiens, MDA-MB-231, compound alone 10^-9 mol/L, read-out: Cell growth inhibition in A compared to that in B was increased by
[18] = compound alone 10^-7 mol/L, in B (normal saline)
[19] = compound alone 10^-8 mol/L, in B (normal saline)
[20] = compound alone 10^-9 mol/L, in B (normal saline)

## COc1cccc2c1C(=O)c1c(O)c3c(c(O)c1C2=O)C[C@@](O)(C(=O)CO)C[C@@H]3O[C@H]1C[C@H](N)[C@H](O)[C@H](C)O1 [Doxorubicin, (8S,10S)-10-[(3-amino-2,3,6-trideoxy-α-L-lyxo-hexopyranosyl)oxy]-8-glycolyl-7,8,9,10-tetrahydro-6,8,11-trihydroxy-1-methoxy-5,12-naphtacenedione hydrochloride, reference compound]
Homo sapiens, MDA-MB-231, as concentration of cytotoxic drug, alone or in formulation at molar ratio 1:6, medium with 5% FBS
  IC50: 0.076 µM
Homo sapiens, MDA-MB-231, cytotoxic drug 10^-7 mol/L (100 nM), alone or in formulation at molar ratio 1:6, working solutions in medium with 5% FBS, read-out: Cell Growth Inhibition, %
  inhibition at 0.1 µM: 53.6%
Homo sapiens, MDA-MB-231, cytotoxic drug 10^-8 mol/L, alone or in formulation at molar ratio 1:6, working solutions in medium with 5% FBS, read-out: Cell Growth Inhibition, %
  inhibition at 0.01 µM: 26.4%
Homo sapiens, MDA-MB-231, cytotoxic drug 10^-9 mol/L, alone or in formulation at molar ratio 1:6, working solutions in medium with 5% FBS, read-out: Cell Growth Inhibition, %
  inhibition at 0.001 µM: 13.8%
Homo sapiens, MDA-MB-231, cytotoxic drug alone 10^-7 mol/L, average of positive controls in medium with 5% FBS, normal saline and saline with 2,3 mM CaCl2, read-out: Cell Growth Inhibition, %
  inhibition at 0.1 µM: 55.4%
Homo sapiens, MDA-MB-231, cytotoxic drug alone 10^-8 mol/L, average of positive controls in medium with 5% FBS, normal saline and saline with 2,3 mM CaCl2, read-out: Cell Growth Inhibition, %
  inhibition at 0.01 µM: 29.4%
Homo sapiens, MDA-MB-231, cytotoxic drug alone 10^-9 mol/L, average of positive controls in medium with 5% FBS, normal saline and saline with 2,3 mM CaCl2, read-out: Cell Growth Inhibition, %
  inhibition at 0.001 µM: 19.4%
Homo sapiens, MDA-MB-231, cytotoxic drug alone, average of positive controls
  IC50: 0.062 µM
Cytotoxic drug 10^-7 mol/L (100 nM), alone or in formulation at molar ratio 1:6, working solutions in medium with 5% FBS, hydrochloride
  Tumor Cell Number, × 10^3: 26.2 ± 1.29 × 10^3
Cytotoxic drug 10^-7 mol/L (100 nM), alone or in formulation at molar ratio 1:6, working solutions in medium with 5% FBS, hydrochloride, 0.1 µM
  Cell Growth Inhibition, %: 53.0* %
Cytotoxic drug 10^-7 mol/L (100 nM), alone or in formulation at molar ratio 1:6, working solutions in medium with 5% FBS, listed as doxorubicin, hydrochloride
  Tumor Cell Number, × 10^3: 23.6 ± 1.02 × 10^3
Cytotoxic drug 10^-8 mol/L, alone or in formulation at molar ratio 1:6, working solutions in medium with 5% FBS
  Tumor Cell Number, × 10^3: 41.0 ± 1.50 × 10^3
Cytotoxic drug 10^-9 mol/L, alone or in formulation at molar ratio 1:6, working solutions in medium with 5% FBS
  Tumor Cell Number, × 10^3: 48.0 ± 1.85 × 10^3
[1]
  Cell Growth Inhibition, %: 55.3* %
  Tumor Cell Number, × 10^3: 25.5±0.71 × 10^3 and 25.2±1.56 × 10^3
[2]
  Cell Growth Inhibition, %: 27.3 * %
  Tumor Cell Number, × 10^3: 40.4±1.65 × 10^3 and 41.0±0.96 × 10^3
[3]
  Cell Growth Inhibition, %: 19.1* %
  Tumor Cell Number, × 10^3: 46.1±2.07 × 10^3 and 45.6±1.38 × 10^3
Cytotoxic drug alone, average of positive controls, hydrochloride
  IC50: 0.064 µM

## CCOC(=O)[C@H](CS(=O)(=O)O)NC(=O)/C=C(C)/C=C/C=C(C)/C=C/C1=C(C)CCCC1(C)C [compound I-1b, N-(all-trans-retlnoyl)-L-cysteic acid ethyl ester]
[4]
  inhibition at 0.1 µM: 46.7%
[5]
  inhibition at 0.01 µM: 44.2%
[6]
  inhibition at 0.001 µM: 39.2%
[7]
  number of viable cells: 30.5 ± 1.82 × 10^3
[8]
  number of viable cells: 31.9 ± 2.16 × 10^3
[9]
  number of viable cells: 34.8 ± 2.41 × 10^3

## CC1=C(/C=C/C(C)=C/C=C/C(C)=C/C(=O)N[C@@H](CS(=O)(=O)O)C(=O)OC(C)C)C(C)(C)CCC1 [compound I-1c, N-(all-trans-retinoyl)-Lwcysteic acid isopropyl ester]
[5]
  inhibition at 0.01 µM: 46.9%
[6]
  inhibition at 0.001 µM: 40.6%
[7]
  number of viable cells: 28.9 ± 1.52 × 10^3
[8]
  number of viable cells: 30.4 ± 1.79 × 10^3
[9]
  number of viable cells: 34.0 ± 2.13 × 10^3

## CCCOC(=O)[C@H](CS(=O)(=O)O)NC(=O)/C=C(C)/C=C/C=C(C)/C=C/C1=C(C)CCCC1(C)C [compound I-1d, N-(all-trans-retinoyl)-L-cysteic acid propyl ester]
[4]
  inhibition at 0.1 µM: 54.8%
[5]
  inhibition at 0.01 µM: 50.7%
[6]
  inhibition at 0.001 µM: 45.2%
[7]
  number of viable cells: 24.1 ± 1.46 × 10^3
[8]
  number of viable cells: 26.3 ± 1.67 × 10^3
[9]
  number of viable cells: 29.2 ± 1.89 × 10^3

## CCCCOC(=O)[C@H](CS(=O)(=O)O)NC(=O)/C=C(C)/C=C/C=C(C)/C=C/C1=C(C)CCCC1(C)C [compound I-1e, N-(all-trans-retinoyl)-L-cysteic acid butyl ester]
[4]
  inhibition at 0.1 µM: 53.5%
[5]
  inhibition at 0.01 µM: 49.2%
[6]
  inhibition at 0.001 µM: 44.7%
[7]
  number of viable cells: 24.8 ± 1.34 × 10^3
[8]
  number of viable cells: 27.1 ± 1.75 × 10^3
[9]
  number of viable cells: 29.5 ± 2.18 × 10^3

## CNC(=O)[C@H](CS(=O)(=O)O)NC(=O)/C=C(C)/C=C/C=C(C)/C=C/C1=C(C)CCCC1(C)C [compound I-1g, N-(all-trans-retinoyl)-L-cysteic acid methylamide]
[5]
  inhibition at 0.01 µM: 35.9%
[6]
  inhibition at 0.001 µM: 27.8%
[10]
  inhibition at 0.1 µM: 22.8%
[11]
  inhibition at 0.1 µM: 26.5%
[12]
  inhibition at 0.01 µM: 36.7%
[13]
  inhibition at 0.01 µM: 14.2%
[14]
  inhibition at 0.01 µM: 26.3%
[15]
  inhibition at 0.001 µM: 28.5%
[16]
  inhibition at 0.001 µM: 4.2%
[17]
  inhibition at 0.001 µM: 25.4%
[18]
  number of viable cells: 43.1 ± 2.03 × 10^3
[19]
  number of viable cells: 47.9 ± 2.86 × 10^3
[20]
  number of viable cells: 53.5 ± 3.21 × 10^3
Compound alone (sodium salt), concentration range 10^-9 to 10^-7 M
  cell growth inhibition reached when increasing the concentration: ~43%
[7]
  number of viable cells: 32.1 ± 1.72 × 10^3
[8]
  number of viable cells: 36.2 ± 1.95 × 10^3
[9]
  number of viable cells: 40.8 ± 2.14 × 10^3
  cell growth inhibition reached on increase of the concentration, in (B): ~23%

## CC1=C(/C=C/C(C)=C/C=C/C(C)=C\C(=O)N[C@@H](CS(=O)(=O)O)C(=O)O)C(C)(C)CCC1 [compound II-1, N-(13-cis-Retinoyl)-L-cysteic acid]
Homo sapiens, MDA-MB-231, compound alone 10^-7 mol/L, in A (saline with […] CaCl2), read-out: cell growth inhibition
  inhibition at 0.1 µM: 42.7%
[10]
  inhibition at 0.1 µM: 32.2%
[11]
  inhibition at 0.1 µM: 15.5%
[12]
  inhibition at 0.01 µM: 41.3%
[13]
  inhibition at 0.01 µM: 30.6%
[14]
  inhibition at 0.01 µM: 15.4%
[15]
  inhibition at 0.001 µM: 37.4%
[16]
  inhibition at 0.001 µM: 25.5%
[17]
  inhibition at 0.001 µM: 16%
[18]
  number of viable cells: 38.6 ± 1.25 × 10^3
[19]
  number of viable cells: 39.5 ± 1.46 × 10^3
[20]
  number of viable cells: 42.4 ± 1.63 × 10^3
  cell growth inhibition reached on increase of the concentration, in (B): ~32%

## CCOC(=O)[C@H](CS(=O)(=O)O)NC(=O)\C=C(C)/C=C/C=C(C)/C=C/C1=C(C)CCCC1(C)C [compound II-1b, N-(13-cis-retinoyl)-L-cysteic acid ethyl ester]
[4]
  inhibition at 0.1 µM: 49.1%
[5]
  inhibition at 0.01 µM: 46.3%
[6]
  inhibition at 0.001 µM: 41.4%
[7]
  number of viable cells: 29.8 ± 1.70 × 10^3
[8]
  number of viable cells: 31.4 ± 1.94 × 10^3
[9]
  number of viable cells: 34.3 ± 1.88 × 10^3

Source: EP1534672B1, “RETINOL DERIVATIVES, THEIR USE IN THE TREATMENT OF CANCER AND FOR POTENTIATING THE EFFICACY OF OTHER CYTOTOXIC AGENTS” (priority 2002, dated 2004)
